Test results from patent US7498343B2, “Mycobacterial inhibitors” (priority 2002, dated 2009).
≈ marks a conversion by molar mass, not a printed value. Like-named read-outs stand apart in the source and are kept apart here.

Experiments:
M. Smegmatis ATCC607 = experiment: In-vitro method for testing compounds for anti-bacterial activity against strain M. smegmatis ATCC607 (Alamar Blue growth inhibition); assay type: cell-based; conditions: pIC50 = -logIC50, IC50 in M, 50% inhibitory concentration for bacterial growth, 48 hours incubation; for IC50: Mycolicibacterium smegmatis, ATCC607, 48 h
In short: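 About 250 CFU/well M. smegmatis ATCC607 in Mueller-Hinton broth exposed to five-fold serial compound dilutions, 48 h at 37 °C, humidified 5% CO2. Growth read by Alamar Blue fluorescence (ex 530/em 590 nm) after 2 h further incubation; % growth inhibition calculated.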

[1] = test system: Mycobacterium tuberculosis (strain H37RV); experiment: In-vitro method for testing compounds against M. tuberculosis (resazurin growth inhibition, MIC); assay type: cell-based; conditions: MIC data representing IC90's, 7 days incubation, resazurin fluorescence
[2] = read-out: pIC50, M. smegmatis ATCC607 (converted)
[3] = Mycobacterium tuberculosis, H37RV, 168 h, read-out: MIC

Row | Structure (SMILES) | pIC50 (M. Smegmatis ATCC607; M. smegmatis ATCC607) | MIC [1] [microgram/ml] | IC50 (M. Smegmatis ATCC607; [2]) [nM] | MIC [1, 3] [µg/mL] | IC50 (M. Smegmatis ATCC607; M. smegmatis ATCC607, read-out: pIC50 (converted)) [nM]
1 | CCN(CC)CCCC(O)(c1ccc2ccccc2c1)C(c1ccccc1)c1cc2cc(Br)ccc2nc1OC (single isomer, unassigned) [Compound 193] | 5.6 | 9.47 | – | – | –
2 | COc1nc2ccc(Br)cc2cc1C(c1ccccc1)C(O)(CCCN1CCCC1)c1cccc2ccccc12 (single isomer, unassigned) [Compound 194] | 4.9 | 47.31 | – | – | –
3 | COc1nc2ccc(Br)cc2cc1C(c1ccccc1)C(O)(CCCCN(C)C)c1cccc2ccccc12 (single isomer, unassigned) [Compound 197] | 6.6 | 9.25 | – | – | –
4 | COc1nc2ccc(Br)cc2cc1C(c1ccccc1)C(O)(CCCN1CCOCC1)c1ccc2ccccc2c1 (single isomer, unassigned) [Compound 198] | 4.3 | 61.16 | – | – | –
5 | COc1nc2ccc(Br)cc2cc1C(c1ccccc1)C(O)(CCCN(C)C)c1cccc2ccccc12 (single isomer, unassigned) [Compound 199] | 6.5 | 47.47 | – | – | –
6 | COc1nc2ccc(Br)cc2cc1C(c1ccccc1)C(O)(CCN1CCN(c2ncccn2)CC1)c1ccc2ccccc2c1 (single isomer, unassigned) [Compound 200] | 4.9 | 67.47 | – | – | –
7 | COc1nc2ccc(Br)cc2cc1C(c1ccccc1)C(O)(CCN(C)C)C1CCN(C(=O)c2ccccc2)CC1 (single isomer, unassigned) [Compound 201] | 5.7 | 9.77 | – | – | –
8 | COc1nc2ccc(Br)cc2cc1C(c1ccccc1)C(O)(CCN(C)C)C1CCN(C(=O)c2ccccc2)CC1 (single isomer, unassigned) [Compound 202] | 4.8 | 48.98 | – | – | –
9 | COc1nc2ccc(-c3cc4ccccc4s3)cc2cc1C(c1ccccc1)C(O)(CCN(C)C)c1cccc(F)c1 (single isomer, unassigned) [Compound 203] | 8.0 | 1.15 | – | – | –
10 | COc1nc2ccc(-c3cc4ccccc4s3)cc2cc1C(c1ccccc1)C(O)(CCN(C)C)c1cccc(F)c1 (single isomer, unassigned) [Compound 204] | 5.4 | 9.14 | – | – | –
11 | COc1nc2ccc(Br)cc2cc1C(c1ccccc1)C(O)(CCCN1CCOCC1)c1cccc2ccccc12 (single isomer, unassigned) [Compound 210] | 6.1 | 61.16 | – | – | –
12 | COc1nc2ccc(Br)cc2cc1C(c1ccccc1)C(O)(CCCN1CCOCC1)c1cccc2ccccc12 (single isomer, unassigned) [Compound 211] | 4.1 | 61.16 | – | – | –
13 | COc1nc2ccc(-c3ccc(CO)o3)cc2cc1C(c1ccccc1)C(O)(CCN(C)C)c1cccc2ccccc12 (single isomer, unassigned) [Compound 212] | 6.0 | 9.08 | – | – | –
14 | COc1nc2cc(C)c(Br)cc2cc1C(c1ccccc1)C(O)(CCN(C)C)c1cccc(F)c1 (single isomer, unassigned) [Compound 215] | 6.2 | 8.52 | – | – | –
15 | COc1nc2cc(C)c(Br)cc2cc1C(c1ccccc1)C(O)(CCN(C)C)c1cccc(F)c1 (single isomer, unassigned) [Compound 216] | 8.0 | 0.85 | – | – | –
16 | COc1nc2cc(Br)ccc2cc1C(c1ccccc1)C(O)(CCN(C)C)c1cccc2ccccc12 (single isomer, unassigned) [Compound 217] | 6.9 | 44.13 | – | – | –
17 | COc1nc2cc(Br)ccc2cc1C(c1ccccc1)C(O)(CCN(C)C)c1cccc2ccccc12 (single isomer, unassigned) [Compound 218] | 6.6 | 8.80 | – | – | –
18 | COc1nc2c(C)cc(Br)cc2cc1C(c1ccccc1)C(O)(CCN(C)C)c1cccc(F)c1 (single isomer, unassigned) [Compound 219] | 5.8 | 42.69 | – | – | –
19 | COc1nc2c(C)cc(Br)cc2cc1C(c1ccccc1)C(O)(CCN(C)C)c1cccc(F)c1 (single isomer, unassigned) [Compound 220] | 5.3 | 8.52 | – | – | –
20 | COc1nc2cccc(Br)c2cc1C(c1ccccc1)C(O)(CCN(C)C)c1cccc2ccccc12 (single isomer, unassigned) [Compound 221] | 6.5 | 44.13 | – | – | –

Row | Structure (SMILES) | pIC50 (M. Smegmatis ATCC607; M. smegmatis ATCC607) | MIC [1] [microgram/ml] | IC50 (M. Smegmatis ATCC607; [2]) [nM] | MIC [1, 3] [µg/mL] | IC50 (M. Smegmatis ATCC607; M. smegmatis ATCC607, read-out: pIC50 (converted)) [nM]
21 | COc1nc2cccc(Br)c2cc1C(c1ccccc1)C(O)(CCN(C)C)c1cccc2ccccc12 (single isomer, unassigned) [Compound 224] | 4.9 | 44.13 | – | – | –
22 | COc1nc2cc(C)c(Br)cc2cc1C(c1ccccc1)C(O)(CCN(C)C)c1cccc2ccccc12 (single isomer, unassigned) [Compound 225] | 6.6 | 1.80 | – | – | –
23 | COc1nc2cc(C)c(Br)cc2cc1C(c1ccccc1)C(O)(CCN(C)C)c1cccc2ccccc12 (single isomer, unassigned) [Compound 226] | 5.5 | 9.03 | – | – | –
24 | COc1nc2cc(C)c(Br)cc2cc1C(c1ccccc1)C(O)(CCN(C)C)c1cc(F)cc(F)c1 (single isomer, unassigned) [Compound 227] | 7.5 | 1.76 | – | – | –
25 | COc1nc2cc(C)c(Br)cc2cc1C(c1ccccc1)C(O)(CCN(C)C)c1cc(F)cc(F)c1 (single isomer, unassigned) [Compound 228] | 5.1 | 8.80 | – | – | –
26 | COc1nc2cc(C)c(C)cc2cc1C(c1ccccc1)C(O)(CCN(C)C)c1cccc2ccccc12 (single isomer, unassigned) [Compound 229] | 7.1 | 40.09 | – | – | –
27 | CCOc1nc2ccc(Br)cc2cc1C(c1ccccc1)C(O)(CCN(C)C)c1ccccc1 (centres unmarked) [Compound 6] | 5.8 | 8.23 | – | – | –
28 | COc1nc2ccc(Br)cc2cc1[C@@H](c1ccccc1)[C@@](O)(CCN(C)C)c1cccc2ccccc12 [Compound 12, (1R,2S) 1-(6-bromo-2-methoxy-quinolin-3-yl)-4-dimethylamino-2-naphthalen-1-yl-1-phenyl-butan-2-ol] | – | – | 2 | 0.07 (≈ 0.126 µM) | –
29 | COc1nc2ccc(Br)cc2cc1C(c1ccccc1)C(O)(CCN(C)C)c1cccc2ccccc12 (centres unmarked) [Compound 13] | – | 44.13 | 200 | – | –
30 | COc1nc2ccc(Br)cc2cc1C(c1ccccc1)C(O)(CCN(C)C)c1cccc2ccccc12 (centres unmarked) [Compound 14] | 6.8 | 8.80 | – | – | –
31 | COc1nc2ccc(Br)cc2cc1C(c1ccccc1)C(O)(CCN(C)C)c1cccc2ccccc12 (centres unmarked) [Compound 15] | 6.5 | 2.78 | – | – | –
32 | CCN(CC)CCC(O)(c1ccccc1)C(c1ccccc1)c1cc2cc(Br)ccc2nc1OC (centres unmarked) [Compound 18] | – | – | – | 10.6 (≈ 19.9 µM) | 200
33 | CCN(CC)CCC(O)(c1ccccc1)C(c1ccccc1)c1cc2cc(Br)ccc2nc1OC (centres unmarked) [Compound 19] | 6.5 | 6.72 | – | – | –
34 | COc1nc2ccc(Br)cc2cc1C(c1ccccc1)C(O)(CCN(C)C)c1cccc(F)c1 (centres unmarked) [Compound 38] | 7.9 | 8.30 | – | – | –
35 | COc1nc2ccc(Br)cc2cc1C(c1ccccc1)C(O)(CCN(C)C)c1cccc(F)c1 (centres unmarked) [Compound 39] | 6.1 | 8.30 | – | – | –
36 | COc1nc2ccc(Br)cc2cc1C(c1ccccc1)C(O)(CCN)c1ccccc1 (centres unmarked) [Compound 44] | 5.9 | 6.01 | – | – | –
37 | COc1nc2ccc(Br)cc2cc1C(c1ccccc1)C(O)(CCN1CCCCC1)c1ccccc1 (centres unmarked) [Compound 47] | 6.5 | – | – | 8.65 (≈ 15.9 µM) | –
38 | COc1nc2ccc(Br)cc2cc1C(c1ccccc1)C(O)(CCN1CCCCC1)c1ccccc1 (centres unmarked) [Compound 48] | 5.8 | 8.65 | – | – | –
39 | COc1nc2ccc(Br)cc2cc1C(c1ccccc1)C(O)(CCn1ccnc1)c1ccccc1 (centres unmarked) [Compound 49] | 5.4 | – | – | 52.9 (≈ 100 µM) | –
40 | COc1nc2ccc(Br)cc2cc1C(c1ccccc1)C(O)(CCn1ccnc1)c1ccccc1 (centres unmarked) [Compound 50] | 5.0 | 52.85 | – | – | –
